# Measurements reported in PMC5962653 (Frontiers in Microbiology, 2018).
# Read-outs that look alike come from different tables or passages of the source. Marks after values point to notes of the source that are not given here.
# What was measured:
# [1] = tested on: K. pneumoniae Kp21, VIM-1/DHA-1 producer; experiment: MIC by broth microdilution (agar dilution for fosfomycin); format: cell-based, Klebsiella pneumoniae; details: supplement table, strain KPc21; for MIC: Klebsiella pneumoniae; for SIR, classification according to EUCAST definitions: EUCAST 2016 breakpoints, fosfomycin by agar dilution
# Source text: (§1) Four genetically unrelated clinical isolates of CP-Kp were studied: Kp07, a VIM-1 ST 1603 clone producer ([Miro et al., 2013]); Kp21, which co-produced VIM-1 and the acquired AmpC type beta-lactamase DHA-1 ST 11 clone ([Miro et al., 2013]); Kp28, co-producing OXA-48 ST11 clone and the extended spectrum beta-lactamase (ESBL) CTX-M-15 ([Oteo et al., 2015]); and Kp29, co-producing KPC-3 ST512 clone with the broad spectrum beta-lactamases TEM-1 and SHV-11 ([Lopez-Cerero et al., 2014]), thereinafter VIM-1, VIM-1/DHA-1, OXA-48 plus CTX-M-15, and KPC-3 producers, respectively. Identification of these isolates was confirmed by a Microflex LT-MALDI Biotyper mass spectrometer (Bruker Daltonics GmbH, Bremen, Germany). The presence of carbapenemase genes, and genes coding for other beta-lactamases was confirmed by PCR and sequencing as described previously. The absence of genetic relation among the isolates was confirmed by PFGE analysis of chromosomal restriction fragments obtained after XbaI cleavage following the criteria of [Tenover et al. (1995)]. […] The antibiotic susceptibility profiles are included in the Supplementary Information.
# (§2) MICs of antibiotics were determined by broth microdilution as recommended by the [Clinical and Laboratory Standards Institute [CLSI] (2012)], using Mueller Hinton broth II (MHB) (Becton Dickinson & Co., Sparks, MD, United States) and agar dilution method for fosfomycin. MIC results were interpreted according to the [European Committee on Antimicrobial Susceptibility Testing [EUCAST] (2016)]^1 breakpoints. Studies were performed in triplicate.
# [2] = tested on: K. pneumoniae Kp28, OXA-48 plus CTX-M-15 producer; experiment: as above; format: cell-based, Klebsiella pneumoniae; details: supplement table, strain KPc28; for MIC: Klebsiella pneumoniae; for SIR, classification according to EUCAST definitions: EUCAST 2016 breakpoints, fosfomycin by agar dilution
# Source text: as §1, §2
# [3] = tested on: K. pneumoniae Kp29, KPC-3 producer; experiment: as above; format: cell-based, Klebsiella pneumoniae; details: for MIC: Klebsiella pneumoniae
# Source text: as §1, §2
# [4] = tested on: K. pneumoniae Kp07, VIM-1 producer; experiment: as above; format: cell-based, Klebsiella pneumoniae; details: supplement table, strain KPc07; for MIC: Klebsiella pneumoniae; for SIR, classification according to EUCAST definitions: EUCAST 2016 breakpoints, fosfomycin by agar dilution
# Source text: as §1, §2
# [5] = tested on: K. pneumoniae VIM-1/DHA-1 strain; format: in vivo; details: CMS 20 mg/kg/8 h ip, rifampin 25 mg/kg/6 h ip, alone or combined; for Mice mortality (%) / Log10 cfu/g spleen (mean ±SD): 72 h, from 4 h post-inoculation; for Log10 cfu/g spleen (mean ±SD): ip MLD 8.94 log10 cfu/mL, at death or 72 h; for Bacteremia (%): qualitative blood cultures at death or 72 h
# Description: (§3) A previously described murine peritoneal sepsis model was used ([Parra Millan et al., 2016]). Briefly, groups of un-anesthetized C57BL/6 mice were infected by ip injection of 0.5 mL of the Minimal Lethal Dose (MLD) of each strain, corresponding to (log10 cfu/mL): 8.97, 8.94 9.35, and 8.38 for VIM-1, VIM-1/DHA-1, OXA-48 plus CTX-M-15, and KPC-3 strains, respectively. Treatments were initiated 4 h post-inoculation. […] Afterward, mice were treated and monitored for 72 h. […] Samples were extracted and processed immediately after the death of mice; the survivor mice were sacrificed (sodium thiopental) at the 72 h. Aseptic thoracotomies were carried out, and blood samples were obtained for qualitative blood cultures; results were expressed as positive (≥1 cfu present in the plate) or negative. Spleens were aseptically extracted, weighed, and homogenized in sterile saline (Stomacher 80; Tekmar Co., Cincinnati, OH, United States) before quantitative cultures (log10 cfu/g) in Columbia agar with 5% sheep blood plates.
# (§4) Mortality and bacteremia rates are expressed as percentages and bacterial tissue concentrations (log10 cfu/g) as means ±SD. The two-tailed Fisher’s test, analysis of variance (ANOVA), and the Dunnet and Tukey post hoc tests were used. A P < 0.05 was considered significant. The SPSS v22.0 statistical package was used (SPSS Inc).
# [6] = tested on: K. pneumoniae VIM-1 strain; format: in vivo; details: CMS 20 mg/kg/8 h ip, rifampin 25 mg/kg/6 h ip, alone or combined; for Bacteremia (%): qualitative blood cultures at death or 72 h
# Description: as §3, §4
# [7] = Serum pharmacokinetics in healthy mice; details: single ip dose (CMS 20 mg/kg; rifampin 25 mg/kg), LC-MS/MS, PKSOLVER
# Description: (§7) Mice were housed in an individually ventilated cage system under specific pathogen-free conditions, and water and food supplied ad libitum. […] All procedures were performed under sodium thiopental (B. Braun Medical S.A., Spain) anesthesia, and all efforts were made to minimize suffering.
# (§8) Blood samples were immediately centrifuged (4500 rpm, 15 min at 4°C), and serum samples stored at -80°C until the analysis. Both serum free and total antibiotic concentrations were measured using HPLC-tandem mass spectrometry (LC-MS/MS) ([Waters et al., 2008]; [Gobin et al., 2010]). Free fractions of the drugs were calculated as described previously ([Waters et al., 2008]; [Gonzalez et al., 2013]; [Cheah et al., 2015]).
# [8] = tested on: K. pneumoniae OXA-48 plus CTX-M-15 strain; format: in vivo; details: for Bacteremia (%): blood cultures at death or 72 h; for Log10 cfu/g lung (mean ±SD): intratracheal 50 μl of 8.18 log10 cfu/mL, at death or 72 h
# Description: A previously characterized murine pneumonia model was used ([Pachon-Ibanez et al., 2010]; [Docobo-Perez et al., 2012]; [Parra Millan et al., 2016]) with the OXA-48 plus CTX-M-15 strain, as OXA-48 is the most prevalent carbapenemase in Spain nowadays ([Palacios-Baena et al., 2016]). Anesthetized mice were infected intratracheally, using 50 μl of a final inoculum of 8.18 log10 cfu/mL. Therapies were initiated 4 h post-infection and treatment groups and dosages were the same as in the peritoneal sepsis model. Mice were treated and monitored over 72 h. After death or sacrifice of the mice at 72 h, blood and lungs samples were aseptically obtained and processed as detailed above.
# as §4
# [9] = tested on: K. pneumoniae VIM-1/DHA-1 producer; format: cell-based, Klebsiella pneumoniae; details: colistin 2 mg/L (EUCAST breakpoint), rifampin 2 mg/L, alone or combined; inoculum 1 × 10^6 cfu/mL, 37°C, samples 0-24 h; three experiments
# Description: (§5) (2016)]. […] Tubes were incubated at 37°C, with shaking, and samples were taken at 0, 1, 3, 6, and 24 h, serially diluted and plated using a spiral platter (Eddy Jet, IUL S.A., Barcelona, Spain). Bacterial colonies were counted using an automatic counter (Flash & Go, IUL S.A., Barcelona, Spain) ([Pournaras et al., 2011]; [Souli et al., 2011]). Experiments were performed three times on separate occasions. […] Bactericidal activities of single antibiotics or combination were defined as a decrease ≥ 3 log10 cfu/mL from the starting inoculum ([Souli et al., 2009]). Studies were performed in triplicate.
# (§6) The RIF concentration used for all strains was 2 mg/L. RIF, filled circles; CST, filled squares; combination of both antimicrobials, filled triangles.
# [10] = tested on: K. pneumoniae VIM-1 producer; format: cell-based, Klebsiella pneumoniae; details: colistin 0.5 mg/L (MIC), rifampin 2 mg/L, alone or combined; inoculum 1 × 10^6 cfu/mL, 37°C, samples 0-24 h; three experiments
# Description: as §5, §6
# [11] = tested on: K. pneumoniae OXA-48 plus CTX-M-15 producer; format: cell-based, Klebsiella pneumoniae; details: colistin 0.5 mg/L (MIC), rifampin 2 mg/L, alone or combined; inoculum 1 × 10^6 cfu/mL, 37°C, samples 0-24 h; three experiments
# Description: as §5, §6
# [12] = tested on: K. pneumoniae OXA-48 plus CTX-M-15 strain; experiment: Murine peritoneal sepsis model; format: in vivo, C57BL/6 mice infected with Klebsiella pneumoniae; details: CMS 20 mg/kg/8 h ip, rifampin 25 mg/kg/6 h ip, alone or combined; for Mice mortality (%) / Log10 cfu/g spleen (mean ±SD): 72 h, from 4 h post-inoculation; for Log10 cfu/g spleen (mean ±SD): ip MLD 9.35 log10 cfu/mL, at death or 72 h; for Bacteremia (%): qualitative blood cultures at death or 72 h
# Description: as §3, §4
# [13] = tested on: K. pneumoniae KPC-3 strain; format: in vivo, C57BL/6 mice infected with Klebsiella pneumoniae; details: CMS 20 mg/kg/8 h ip, rifampin 25 mg/kg/6 h ip, alone or combined
# Description: as §3, §4
# [14] = mouse, in vivo
# Description: as §7, §8
# [15] = broth microdilution, read-out: MIC
# [16] = agar dilution, read-out: MIC (agar dilution method)
# [17] = supplement table, strain KPc29, EUCAST 2016 breakpoints, fosfomycin by agar dilution
# [18] = 72 h, from 4 h post-inoculation
# [19] = CMS 20 mg/kg/8 h ip, rifampin 25 mg/kg/6 h ip, alone or combined
# [20] = CMS 20 mg/kg/8 h ip, rifampin 25 mg/kg/6 h ip, alone or combined, from 4 h post-infection, 72 h
Compound,"MIC [1, 15] [µg/mL]","SIR, classification according to EUCAST definitions [1]","MIC [2, 15] [µg/mL]","SIR, classification according to EUCAST definitions [2]",MIC [3] [µg/mL],"MIC [4, 15] [µg/mL]","SIR, classification according to EUCAST definitions [4]","SIR, classification according to EUCAST definitions [3, 17]",Mice mortality (%) [5] [%],Log10 cfu/g spleen (mean ±SD) [5] [log10 cfu/g],Bacteremia (%) [5] [%],"Mice mortality (%) [6, 18] [%]",Bacteremia (%) [6] [%],"Bacteremia (%) [8, 19] [%]","Log10 cfu/g lung (mean ±SD) [8, 20]",Mice mortality (%) [12] [%],Log10 cfu/g spleen (mean ±SD) [12],Bacteremia (%) [12] [%],also measured
NCC[C@H](O)C(=O)N[C@@H]1C[C@H](N)[C@@H](O[C@H]2O[C@H](CN)[C@@H](O)[C@H](O)[C@H]2O)[C@H](O)[C@H]1O[C@H]1O[C@H](CO)[C@@H](O)[C@H](N)[C@H]1O [Amikacin],4,S,1,S,> 32,1,S,,,,,,,,,,,,"SIR, classification according to EUCAST definitions [3]: R"
C[C@@H]1O[C@@H]1P(=O)(O)O [Fosfomycin],,S,,S,,,S,R,,,,,,,,,,,"MIC [1, 16]: 8 µg/mL; MIC [2, 16]: 32 µg/mL; MIC ([3]; supplement table, strain KPc29, agar dilution, read-out: MIC (agar dilution method)): 64 µg/mL; MIC [4, 16]: 8 µg/mL"
CNC(C)C1CCC(N)C(OC2C(N)CC(N)C(OC3OCC(C)(O)C(NC)C3O)C2O)O1 (stereo not drawn) [Gentamicin],2,S,0.5,S,,4,I,S,,,,,,,,,,,
C[C@@H](O)[C@H]1C(=O)N2C(C(=O)O)=C(S[C@@H]3CN[C@H](C(=O)N(C)C)C3)[C@H](C)[C@H]12 [Meropenem],16,R,2,S,> 32,2,S,R,,,,,,,,,,,
"CO[C@H]1/C=C/O[C@@]2(C)Oc3c(C)c(O)c4c(O)c(c(/C=N/N5CCN(C)CC5)c(O)c4c3C2=O)NC(=O)/C(C)=C\C=C\[C@H](C)[C@H](O)[C@@H](C)[C@@H](O)[C@@H](C)[C@H](OC(C)=O)[C@@H]1C [Rifampin, rifampin]",,,,,,,,,100,9.68 ± 0.09,100,100,100,20,3.07 ± 1.63^a log10 cfu/g,100,8.24 ± 0.76^c log10 cfu/g,100,"AUC0-24, free drug in serum (fAUC0-24) ([7]; free (fCST, fRIF)): 44.14 mg⋅h/L; Cmax, free drug in serum ([7]; free (fCST, fRIF), sets of three mice): 2900 ng/mL; AUC0-24, total drug in serum ([7]; total (tCST, tRIF)): 1103.58 mg⋅h/L; Cmax, total drug in serum ([7]; total (tCST, tRIF), sets of three mice): 72580 ng/mL; Bactericidal activity in time-kill curves (decrease ≥ 3 log10 cfu/mL from the starting inoculum) [9]: did not show bactericidal activity; Bactericidal activity in time-kill curves (decrease ≥ 3 log10 cfu/mL from the starting inoculum) [10]: did not show bactericidal activity; Bactericidal activity in time-kill curves (decrease ≥ 3 log10 cfu/mL from the starting inoculum) [11]: did not show bactericidal activity"
colistimethate sodium [CMS],,,,,,,,,100,9.54 ± 0.34,100,93.33,100,40,5.14 ± 3.78 log10 cfu/g,100,9.52 ± 0.55 log10 cfu/g,100,"Log10 cfu/g spleen (mean ±SD) ([6]; ip MLD 8.97 log10 cfu/mL, from 4 h post-inoculation, 72 h, at death or 72 h, SD): 8.60 ± 0.30 log10 cfu/g; Mice mortality (%) [13, 18]: 75%; Log10 cfu/g spleen (mean ±SD) ([13]; ip MLD 8.38 log10 cfu/mL, from 4 h post-inoculation, 72 h, at death or 72 h, SD): 9.19 ± 1.85 log10 cfu/g; Bacteremia (%) ([13]; qualitative blood cultures at death or 72 h): 100%; t1/2, free drug in serum [14]: 3.82 h; t1/2, total drug in serum [14]: 3.82 h; Mice mortality (%) ([8]; 72 h, CMS 20 mg/kg/8 h ip, rifampin 25 mg/kg/6 h ip, alone or combined, from 4 h post-infection): 26.70%; Bacterial lung decrease ([8]; CMS monotherapy 20 mg/kg/8 h ip vs control group, not significant): 2.91 log10 cfu/g"
